Data from US11744868B1, “Inonotus obliquus dextran, preparation method and application thereof” (Jilin Agricultural University, priority 2022, dated 2023).
Counter-ions that a name gives are not always drawn.

How the values were obtained:
AsPC-1 cell = conditions: 0, 200 μg/mL, 400 μg/mL, 800 ng/mL; 24 h incubation; FIG. 9
Procedure: 1.2 experimental cell line AsPC-1 of human metastatic pancreatic cancer is purchased from American Type Culture Collection (ATCC);
2.1 human metastatic pancreatic cancer cells are cultured in RPMI-1640 culture medium (containing penicillin 100 U/mL, streptomycin 100 U/mL and 10% fetal bovine serum) at 37° C. in a 5% CO2 constant temperature incubator, and cells of logarithmic growth phase are taken for the experiment;

[1] = test system: AsPC-1 (human metastatic pancreatic adenocarcinoma cells) cells; assay: CCK-8 cell viability of AsPC-1 cells; format: cell-based; conditions: for Cell vitality (%): 24 h, n = 3
Procedure: Therapeutic effects of two drugs, Inonotus Obliquus polysaccharide and gemcitabine hydrochloride, alone and in combination, on AsPC-1 (human metastatic pancreatic adenocarcinoma cells) cells are investigated respectively. Cell culture: AsPC-1 (human metastatic pancreatic adenocarcinoma cells) cells are resuscitated in culture flasks and incubated at 37° C. in a 5% CO2 incubator; the cells are adhered to the wall and then subjected to passaging or […] operations; inoculation: when the cells are in logarithmic growth phase, they are washed twice with PBS buffer (phosphate concentration 0.01 M, pH 7.2-7.4); the cells are digested by 1 mL of 0.25% trypsin-EDTA (ethylene diamine tetraacetic acid) for 1-2 min, then 2 mL of RPMI-1640 culture solution containing 10% fetal bovine serum and 1% of double antibodies (penicillin and streptomycin) is added to terminate the digestion, followed by centrifuging at 1,000 revolutions per minute (rpm) for 3 min; then the wall-adhered cells are completely blown down and enumerated by hemocytometer plates, where the cells are inoculated in an 96-well plate in an amount of 100 μL per well, with a controlled number of 5,000 cells per well, and incubated in an incubator for 24 h. CCK-8 experiment dosing: […] Calculation of cell viability for each group:Cell viability (%)=(ODsample−ODblank)×100/(ODcontrol−ODblank)

Row | Compound | mitochondrial membrane potential (AsPC-1 cell) | Cell vitality (%) ([1]; 400 μg/mL IOP1-1 + 0 μg/mL gemcitabine hydrochloride) | Cell vitality (%) ([1]; 800 μg/mL IOP1-1 + 0 μg/mL gemcitabine hydrochloride) | therapeutic effect on AsPC-1 tumor cells / tumor inhibition ([1]; summary in words of Table 2) | Cell vitality (%) ([1]; 0 μg/mL IOP1-1 + 20 μg/mL gemcitabine hydrochloride)
1 | Inonotus Obliquus dextran [IOP1-1] | decreases as the concentration of drug administered increases | 78.2 ± 2.24% | 66.5 ± 4.12% | excellent | 
2 | Nc1ccn([C@@H]2O[C@H](CO)[C@@H](O)C2(F)F)c(=O)n1 [gemcitabine hydrochloride, reference compound] |  |  |  |  | 66.1 ± 5.49%
